pIC50: −log10 of the molar value. Where “and” joins values, the source holds several entries; their conditions need not be identical. Equal values may be shown once. Read-outs that look alike come from different tables or passages of the source.
Assays:
MDM2 [1] = biological target: T1, MDM2 (Homo sapiens, UniProt Q00987); assay: Competition binding of M10 and nutlin-3a (F-M10 or FP53 probe displacement from MDM2, FP); settings: duplicates -1/-2; for F-M10 displacement (values are anisotropy): F-M10 macrocycle probe; for FP53 displacement (values are anisotropy): FP53 linear peptide probe
Method: With the fluorescein conjugate, we also performed a competition experiment with nutlin-3a that binds to a defined hydrophobic pocket of MDM2[34] and is a precursor of nutlin-based clinical candidates.
Supplementary Figure 13. Studying the binding site of M10 by competition binding
by fluorescence polarization. The displacement was measured in two independent experiments
The displacement was measured in two

MDM2 [2] = biological target: T1, MDM2; assay: MDM2 binding (FP53 displacement) by HPLC fractions of resynthesized hit reactions
Method: For hits from the MDM2 screen, reactions were performed in the same way but at a 50 nmol scale, and purified with the same method but a 10–80% gradient of solvent B and over 22 min. Fractions were lyophilized and dissolved in 40 μL of DMSO, 160 μL of water was added, and 5 μL of each fraction was transferred to a 384-well plate (Nunc, 264705), and 15 μL of premixed MDM2/FP53 peptide were added (final concentrations: 1.2 μM MDM2, 50 nM FP53, 5% DMSO).

MDM2 [3] = biological target: T1, MDM2; assay: IC50 of purified MDM2-binding macrocycles, fluorescence polarization competition with FP53; settings: for pIC50: HPLC-purified macrocycle, FP displacement of fluorescent reporter peptide; for anisotropy: replicates 1-3
Method: Volumes of 5 μL of purified macrocycles (20 mM in DMSO) were serial diluted two-fold in 100% DMSO in a low dead-volume ECHO source plate. Using acoustic droplet transfer, 150 nL of each dilution was transferred to a 384 well low volume polystyrene plate (Nunc, 264705). […] Fluorescence anisotropy was measured as described above. The percentage of bound inhibitor was calculated using the following equation4 %boundinhibitor=N−X/N−P×100 where N is the average anisotropy of the DMSO controls, X is the anisotropy value obtained for each well, and P is the average anisotropy of the unbound probe. The IC50s were determined by plotting the percent of bound inhibitor against the logarithm of the corresponding macrocycle concentration, and the curves were fitted in GraphPad Prism 6 as described above.

MDM2 [4] = biological target: T1, MDM2; assay: MDM2 binding screen of Libraries 3 and 4: displacement of fluorescent probe F-M8 at 750 nM macrocycle; settings: 750 nM macrocycle; crude reaction; probe F-M8
How it was run: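 Cyclic peptide scaffolds were acylated in DMSO with carboxylic acids (20 equiv.), HBTU and DABCO for 6 h at room temperature. Reactions were quenched overnight in 100 mM Tris-Cl pH 7.4, 0.01% Tween20. The fluorescein conjugate was also competed with nutlin-3a.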

T1 sequence (Q00987 whole entry): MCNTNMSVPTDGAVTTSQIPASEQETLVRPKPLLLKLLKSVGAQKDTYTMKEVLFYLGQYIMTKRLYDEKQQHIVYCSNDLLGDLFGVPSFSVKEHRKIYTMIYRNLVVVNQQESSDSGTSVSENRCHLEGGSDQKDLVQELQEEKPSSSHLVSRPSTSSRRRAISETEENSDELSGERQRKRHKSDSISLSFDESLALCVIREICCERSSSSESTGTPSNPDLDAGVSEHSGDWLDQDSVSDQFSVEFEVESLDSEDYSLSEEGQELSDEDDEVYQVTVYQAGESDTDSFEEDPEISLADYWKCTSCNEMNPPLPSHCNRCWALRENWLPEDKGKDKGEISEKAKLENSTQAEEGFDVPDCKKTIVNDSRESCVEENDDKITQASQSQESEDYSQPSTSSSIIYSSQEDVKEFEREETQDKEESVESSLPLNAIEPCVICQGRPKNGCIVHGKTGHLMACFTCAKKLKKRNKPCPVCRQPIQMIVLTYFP

Nutlin
F-M10 displacement (values are anisotropy) (MDM2 [1]; Log[Inhibitor] M -4.0): 71 and 53
F-M10 displacement (values are anisotropy) (MDM2 [1]; Log[Inhibitor] M -4.3): 66 and 52
F-M10 displacement (values are anisotropy) (MDM2 [1]; Log[Inhibitor] M -4.6): 66 and 55
F-M10 displacement (values are anisotropy) (MDM2 [1]; Log[Inhibitor] M -4.9): 62 and 56
F-M10 displacement (values are anisotropy) (MDM2 [1]; Log[Inhibitor] M -5.2): 69 and 55
F-M10 displacement (values are anisotropy) (MDM2 [1]; Log[Inhibitor] M -5.5): 63 and 51
F-M10 displacement (values are anisotropy) (MDM2 [1]; Log[Inhibitor] M -5.8): 63 and 55
F-M10 displacement (values are anisotropy) (MDM2 [1]; Log[Inhibitor] M -6.1): 68 and 53
F-M10 displacement (values are anisotropy) (MDM2 [1]; Log[Inhibitor] M -6.4): 65 and 54
F-M10 displacement (values are anisotropy) (MDM2 [1]; Log[Inhibitor] M -6.7): 64 and 54
F-M10 displacement (values are anisotropy) (MDM2 [1]; Log[Inhibitor] M -7.0): 64 and 51
F-M10 displacement (values are anisotropy) (MDM2 [1]; Log[Inhibitor] M -7.3): 64 and 50
F-M10 displacement (values are anisotropy) (MDM2 [1]; Log[Inhibitor] M -7.6): 67 and 53
F-M10 displacement (values are anisotropy) (MDM2 [1]; Log[Inhibitor] M -7.9): 61 and 50
F-M10 displacement (values are anisotropy) (MDM2 [1]; Log[Inhibitor] M -8.2): 66 and 47
F-M10 displacement (values are anisotropy) (MDM2 [1]; Log[Inhibitor] M -8.5): 66 and 47
FP53 displacement (values are anisotropy) (MDM2 [1]; Log[Inhibitor] M -4.0): 13 and 15
FP53 displacement (values are anisotropy) (MDM2 [1]; Log[Inhibitor] M -4.3): 21 and 16
FP53 displacement (values are anisotropy) (MDM2 [1]; Log[Inhibitor] M -4.6): 13 and 14
FP53 displacement (values are anisotropy) (MDM2 [1]; Log[Inhibitor] M -4.9): 14 and 13
FP53 displacement (values are anisotropy) (MDM2 [1]; Log[Inhibitor] M -5.2): 15 and 11
FP53 displacement (values are anisotropy) (MDM2 [1]; Log[Inhibitor] M -5.5): 15 and 18
FP53 displacement (values are anisotropy) (MDM2 [1]; Log[Inhibitor] M -5.8): 15 and 14
FP53 displacement (values are anisotropy) (MDM2 [1]; Log[Inhibitor] M -6.1): 19 and 23
FP53 displacement (values are anisotropy) (MDM2 [1]; Log[Inhibitor] M -6.4): 30 and 27
FP53 displacement (values are anisotropy) (MDM2 [1]; Log[Inhibitor] M -6.7): 43 and 49
FP53 displacement (values are anisotropy) (MDM2 [1]; Log[Inhibitor] M -7.0): 56 and 61
FP53 displacement (values are anisotropy) (MDM2 [1]; Log[Inhibitor] M -7.3): 64 and 66
FP53 displacement (values are anisotropy) (MDM2 [1]; Log[Inhibitor] M -7.6): 64 and 68
FP53 displacement (values are anisotropy) (MDM2 [1]; Log[Inhibitor] M -7.9): 66 and 67
FP53 displacement (values are anisotropy) (MDM2 [1]; Log[Inhibitor] M -8.2): 65
FP53 displacement (values are anisotropy) (MDM2 [1]; Log[Inhibitor] M -8.5): 69 and 66

O=C(NC[C@@H]1NC(=O)[C@H]2CCCN(C2)C(=O)CCSSCCNC(=O)[C@H](Cc2c[nH]c3ccccc23)NC1=O)c1ccc(Cl)cc1 [M7]
Fraction bound (fraction fluorescent probe displaced) (MDM2 [2]; HPLC Fraction 1 of acylation reaction): 0.06
Fraction bound (fraction fluorescent probe displaced) (MDM2 [2]; HPLC Fraction 2 of acylation reaction): 0.33
Fraction bound (fraction fluorescent probe displaced) (MDM2 [2]; HPLC Fraction 3 of acylation reaction): 0.08
Fraction bound (fraction fluorescent probe displaced) (MDM2 [2]; HPLC Fraction 4 of acylation reaction): -0.000869
Fraction bound (fraction fluorescent probe displaced) (MDM2 [2]; HPLC Fraction 5 of acylation reaction): -0.0216
Fraction bound (fraction fluorescent probe displaced) (MDM2 [2]; HPLC Fraction 6 of acylation reaction): 0.02
Fraction bound (fraction fluorescent probe displaced) (MDM2 [2]; HPLC Fraction 7 of acylation reaction): 0.02
Fraction bound (fraction fluorescent probe displaced) (MDM2 [2]; HPLC Fraction 8 of acylation reaction): 0.02
Fraction bound (fraction fluorescent probe displaced) (MDM2 [2]; HPLC Fraction 9 of acylation reaction): 0.02
Fraction bound (fraction fluorescent probe displaced) (MDM2 [2]; HPLC Fraction 10 of acylation reaction): 0.08
Fraction bound (fraction fluorescent probe displaced) (MDM2 [2]; HPLC Fraction 11 of acylation reaction): -0.000869
Fraction bound (fraction fluorescent probe displaced) (MDM2 [2]; HPLC Fraction 12 of acylation reaction): -0.06
Fraction bound (fraction fluorescent probe displaced) (MDM2 [2]; HPLC Fraction 13 of acylation reaction): -0.0422
Fraction bound (fraction fluorescent probe displaced) (MDM2 [2]; HPLC Fraction 14 of acylation reaction): 0.29
Fraction bound (fraction fluorescent probe displaced) (MDM2 [2]; HPLC Fraction 15 of acylation reaction): -0.0216
Fraction bound (fraction fluorescent probe displaced) (MDM2 [2]; HPLC Fraction 16 of acylation reaction): -0.10
Fraction bound (fraction fluorescent probe displaced) (MDM2 [2]; HPLC Fraction 17 of acylation reaction): -0.10
Fraction bound (fraction fluorescent probe displaced) (MDM2 [2]; HPLC Fraction 18 of acylation reaction): -0.15
Fraction bound (fraction fluorescent probe displaced) (MDM2 [2]; HPLC Fraction 19 of acylation reaction): -0.25
Fraction bound (fraction fluorescent probe displaced) (MDM2 [2]; HPLC Fraction 20 of acylation reaction): -0.21
pIC50 (MDM2 [3]; average of 3 replicates, read-out: IC50 Average): 5.43
pIC50 (MDM2 [3]; replicate 1, read-out: IC50 Replicate 1): 5.42
pIC50 (MDM2 [3]; replicate 2, read-out: IC50 Replicate 2): 5.70
pIC50 (MDM2 [3]; replicate 3, read-out: IC50 Replicate 3): 5.28
displacement of fluorescent peptide probe from MDM2 (MDM2 [3]; HPLC-purified macrocycles, FP competition): efficiently displaced
anisotropy (MDM2 [3]; Log[Macrocycle] M -4.0): 39 and 34 and 33
anisotropy (MDM2 [3]; Log[Macrocycle] M -4.3): 47 and 37 and 40
anisotropy (MDM2 [3]; Log[Macrocycle] M -4.6): 50 and 42 and 45
anisotropy (MDM2 [3]; Log[Macrocycle] M -4.9): 54 and 48 and 49
anisotropy (MDM2 [3]; Log[Macrocycle] M -5.2): 60 and 47 and 53
anisotropy (MDM2 [3]; Log[Macrocycle] M -5.5): 68 and 53 and 61
anisotropy (MDM2 [3]; Log[Macrocycle] M -5.8): 73 and 55 and 63
anisotropy (MDM2 [3]; Log[Macrocycle] M -6.1): 81 and 61 and 69
anisotropy (MDM2 [3]; Log[Macrocycle] M -6.4): 87 and 68 and 75
anisotropy (MDM2 [3]; Log[Macrocycle] M -6.7): 89 and 72 and 77
anisotropy (MDM2 [3]; Log[Macrocycle] M -7.0): 92 and 75 and 82
anisotropy (MDM2 [3]; Log[Macrocycle] M -7.3): 92 and 72 and 85
anisotropy (MDM2 [3]; Log[Macrocycle] M -7.6): 97 and 81 and 87
anisotropy (MDM2 [3]; Log[Macrocycle] M -7.9): 94 and 83 and 85
anisotropy (MDM2 [3]; Log[Macrocycle] M -8.2): 94 and 79 and 89
anisotropy (MDM2 [3]; Log[Macrocycle] M -8.5): 96 and 78 and 86

O=C(/C=C/c1ccc2c(c1)OCO2)NC[C@@H]1NC(=O)[C@H]2CCCN(C2)C(=O)CCSSCCNC(=O)[C@H](Cc2c[nH]c3ccccc23)NC1=O [M10]
displacement of fluorescent probe from MDM2 (MDM2 [4]): 84%
F-M10 displacement (values are anisotropy) (MDM2 [1]; Log[Inhibitor] M -4.0): 23 and 19
F-M10 displacement (values are anisotropy) (MDM2 [1]; Log[Inhibitor] M -4.3): 19 and 11
F-M10 displacement (values are anisotropy) (MDM2 [1]; Log[Inhibitor] M -4.6): 18 and 15
F-M10 displacement (values are anisotropy) (MDM2 [1]; Log[Inhibitor] M -4.9): 18 and 10
F-M10 displacement (values are anisotropy) (MDM2 [1]; Log[Inhibitor] M -5.2): 14 and 12
F-M10 displacement (values are anisotropy) (MDM2 [1]; Log[Inhibitor] M -5.5): 15 and 12
F-M10 displacement (values are anisotropy) (MDM2 [1]; Log[Inhibitor] M -5.8): 18 and 9
F-M10 displacement (values are anisotropy) (MDM2 [1]; Log[Inhibitor] M -6.1): 17 and 10
F-M10 displacement (values are anisotropy) (MDM2 [1]; Log[Inhibitor] M -6.4): 20 and 15
F-M10 displacement (values are anisotropy) (MDM2 [1]; Log[Inhibitor] M -6.7): 24 and 19
F-M10 displacement (values are anisotropy) (MDM2 [1]; Log[Inhibitor] M -7.0): 30 and 21
F-M10 displacement (values are anisotropy) (MDM2 [1]; Log[Inhibitor] M -7.3): 40 and 26
F-M10 displacement (values are anisotropy) (MDM2 [1]; Log[Inhibitor] M -7.6): 46 and 32
F-M10 displacement (values are anisotropy) (MDM2 [1]; Log[Inhibitor] M -7.9): 52 and 42
F-M10 displacement (values are anisotropy) (MDM2 [1]; Log[Inhibitor] M -8.2): 57 and 39
F-M10 displacement (values are anisotropy) (MDM2 [1]; Log[Inhibitor] M -8.5): 57 and 42
FP53 displacement (values are anisotropy) (MDM2 [1]; Log[Inhibitor] M -4.0): 35 and 39
FP53 displacement (values are anisotropy) (MDM2 [1]; Log[Inhibitor] M -4.3): 34 and 40
FP53 displacement (values are anisotropy) (MDM2 [1]; Log[Inhibitor] M -4.6): 35 and 36
FP53 displacement (values are anisotropy) (MDM2 [1]; Log[Inhibitor] M -4.9): 31 and 36
FP53 displacement (values are anisotropy) (MDM2 [1]; Log[Inhibitor] M -5.2): 32 and 39
FP53 displacement (values are anisotropy) (MDM2 [1]; Log[Inhibitor] M -5.5): 31 and 40
FP53 displacement (values are anisotropy) (MDM2 [1]; Log[Inhibitor] M -5.8): 30 and 37
FP53 displacement (values are anisotropy) (MDM2 [1]; Log[Inhibitor] M -6.1): 32 and 36
FP53 displacement (values are anisotropy) (MDM2 [1]; Log[Inhibitor] M -6.4): 31 and 40
FP53 displacement (values are anisotropy) (MDM2 [1]; Log[Inhibitor] M -6.7): 42 and 51
FP53 displacement (values are anisotropy) (MDM2 [1]; Log[Inhibitor] M -7.0): 51 and 55
FP53 displacement (values are anisotropy) (MDM2 [1]; Log[Inhibitor] M -7.3): 54 and 63
FP53 displacement (values are anisotropy) (MDM2 [1]; Log[Inhibitor] M -7.6): 60 and 67
FP53 displacement (values are anisotropy) (MDM2 [1]; Log[Inhibitor] M -7.9): 60 and 65
FP53 displacement (values are anisotropy) (MDM2 [1]; Log[Inhibitor] M -8.2): 66 and 67
FP53 displacement (values are anisotropy) (MDM2 [1]; Log[Inhibitor] M -8.5): 63 and 67
